This assay relates to SARS-CoV-2. Put plainly: microbe, parasite or virus in culture. The settings on record: Severe acute respiratory syndrome coronavirus 2, Vero C1008, 48 h.

Where only a bound is given, the exact number is not on record here.

The compound `COc1cc2c(cc1OC)C(C)NCC2` (centres undefined) registered an IC50 of more than 20 µM. Also, the IC50 (read-out: pIC50 (converted)) is more than 20 µM.

With `Cn1cc([S+](C)[O-])c(=O)c2ccc(F)cc21` (centres undefined) [FLOSEQUINAN], the IC50 was more than 20 µM. Besides, the IC50 (read-out: pIC50 (converted)) was more than 20 µM.

`O=c1[nH]c(=O)c2nc3ccccc3nc2[nH]1` [ALLOXAZINE] showed an IC50 of more than 20 µM. Under “read-out: pIC50 (converted)”, the IC50 is more than 20 µM.

The compound `CN1N=C(N)c2cn(C3OC(COP(=O)(O)O)C(O)C3O)c3ncnc1c23` (centres undefined) gave an IC50 of more than 20 µM. In addition, the IC50 (read-out: pIC50 (converted)) was more than 20 µM.

As for `C=C1[C@@H](O)C23C[C@@H]1[C@@H](O)C[C@H]2[C@@]12[C@@H]4[C@H]3C[C@@H]1[C@@](C)(CC[C@@H]2O)CN4CC`, the IC50 is more than 20 µM. For the same compound, where the note is “read-out: pIC50 (converted)”, the IC50 was more than 20 µM.

Regarding `COC(=O)OCOc1c2n(ccc1=O)N([C@@H]1c3ccccc3SCc3c1ccc(F)c3F)[C@@H]1COCCN1C2=O` [BALOXAVIR MARBOXIL], the IC50 is more than 20 µM. Also, the IC50 (read-out: pIC50 (converted)) is more than 20 µM.

Take `NC1CCN(c2cccc(Cl)n2)CC1`: the IC50 is more than 20 µM. For the same compound, the IC50 (read-out: pIC50 (converted)) is more than 20 µM.

Regarding `C[C@@H](c1ccc2nccn2c1)n1nnc2ncc(-c3cnn(C)c3)nc21` [SAVOLITINIB], the IC50 was more than 20 µM. Moreover, the IC50 (read-out: pIC50 (converted)) was more than 20 µM.

In the case of `CCNC1=Nc2ccc(Cl)cc2C(C)(c2ccccc2)O1` (centres undefined) [ETIFOXINE], the IC50 is more than 20 µM. Also, the IC50 (read-out: pIC50 (converted)) was more than 20 µM.

`CCOc1ccc(NC(=O)C(C)O)cc1` (centres undefined): the IC50 was more than 20 µM. In addition, where the note is “read-out: pIC50 (converted)”, the IC50 is more than 20 µM.

Compound `CC1CCc2c(N3CCC(O)CC3)c(F)cc3c(=O)c(C(=O)O)cn1c23` (centres undefined) [NADIFLOXACIN] registered an IC50 of more than 20 µM. For the same compound, for the setting “read-out: pIC50 (converted)”, the IC50 was more than 20 µM.

For `CCC(=O)O[C@@H]1CC(=O)O[C@H](C)C/C=C\C=C/[C@@H](O)[C@H](C)C[C@H](CC=O)[C@H](O[C@H]2O[C@H](C)[C@@H](O[C@H]3C[C@@](C)(O)[C@@H](OC(=O)CC)[C@H](C)O3)[C@H](N(C)C)[C@H]2O)[C@H]1OC`, the IC50 is more than 20 µM. The IC50 (read-out: pIC50 (converted)) is more than 20 µM.

As to `O=C(O)[C@@H]1CSCN1` [THIOPROLINE], the IC50 was more than 20 µM. Further, the IC50 (read-out: pIC50 (converted)) was more than 20 µM.

`CCCC1(c2cccc(O)c2)CCN(C)C1` (centres undefined) [PROFADOL] had an IC50 of more than 20 µM. Also, the IC50 (read-out: pIC50 (converted)) was more than 20 µM.

`O=C1C=CC(=O)c2ccccc21` [NAPHTHOQUINONE] gave an IC50 of more than 20 µM. For the same compound, where the note is “read-out: pIC50 (converted)”, the IC50 is more than 20 µM.

With `NCCCCCCN`, the IC50 is more than 20 µM. Also, the IC50 (read-out: pIC50 (converted)) was more than 20 µM.

Consider `O=C1CN=C(c2ccccn2)c2cc(Br)ccc2N1` [BROMAZEPAM], for which the IC50 was more than 20 µM. For the same compound, the IC50 (read-out: pIC50 (converted)) was more than 20 µM.

In turn, `CC12CCC(C(C(=O)O)C1=O)C2(C)C` (centres undefined) registered an IC50 of more than 20 µM. Also, for the setting “read-out: pIC50 (converted)”, the IC50 is more than 20 µM.

As to `OC(CN1CCC(Cc2ccc(F)cc2)CC1)c1ccc(Cl)cc1` (centres undefined) [ELIPRODIL], the IC50 is more than 20 µM. The IC50 (read-out: pIC50 (converted)) is more than 20 µM.

`CN(CC1(C)CCCO1)S(=O)(=O)c1ccc(Cl)c(S(N)(=O)=O)c1` (centres undefined) [MEFRUSIDE] had an IC50 of more than 20 µM. Further, the IC50 (read-out: pIC50 (converted)) was more than 20 µM.

Consider `O=C(O)C(=O)O` [OXALIC ACID], for which the IC50 is more than 20 µM. Also, the IC50 (read-out: pIC50 (converted)) is more than 20 µM.

As for `O=C(O)COc1ccc(C(=O)c2cccs2)c(Cl)c1Cl`, the IC50 was more than 20 µM. For the same compound, under “read-out: pIC50 (converted)”, the IC50 was more than 20 µM.

In turn, `CN1CCN(c2c(F)cc3c(=O)c(C(=O)O)cn(CCF)c3c2F)CC1` [FLEROXACIN] displayed an IC50 of more than 20 µM. For the same compound, for the setting “read-out: pIC50 (converted)”, the IC50 was more than 20 µM.

Compound `C=CC1=C(C(=O)O)N2C(=O)[C@@H](NC(=O)/C(=N\OCC(=O)O)c3csc(N)n3)[C@H]2SC1` [CEFIXIME] gave an IC50 of more than 20 µM. In addition, for the setting “read-out: pIC50 (converted)”, the IC50 was more than 20 µM.

`CC(=O)C1C(=O)C=C(C)OC1=O` (centres undefined) [DEHYDROACETIC ACID] displayed an IC50 of more than 20 µM. Moreover, where the note is “read-out: pIC50 (converted)”, the IC50 was more than 20 µM.

The compound `COc1cc2c(cc1-c1cc3cc4ccoc4cc3oc1=O)OCO2` [PACHYRRIZINE] yielded an IC50 of more than 20 µM. Further, the IC50 (read-out: pIC50 (converted)) is more than 20 µM.

In turn, `NC(N)=O` [UREA] returned an IC50 of more than 20 µM. Moreover, the IC50 (read-out: pIC50 (converted)) was more than 20 µM.

Values taken from ChEMBL document CHEMBL4651402, “Screening of ~5500 FDA-approved drugs and clinical candidates for anti-SARS-CoV-2 activity” (2021).
